Assays:
JFH-1 cells = assay: Intracellular ROS production (DCF-DA) in JFH-1 cells; assay type: cell-based, human; settings: for ROS production: 2 hours, PEP1 0.001-10 μM, NAC, PDTC 100 μM, vitamin E 10 μM, vs vehicle
Procedure: One day after 5×10^4 (cells/well) cells of the JFH-1 cell line were seeded into a 24-well plate, intracellular ROS production was measured according to various experimental materials. Measurement of intracellular activity was carried out by staining the cells with dichlorodihydrofluoresein diacetate (DCF-DA; Invitrogen), and fluorescence measurement of ROS production was carried out at […] using Infinte M2000 Tecan (Tecan Trading AG, Switzerland). All fluorescent units were expressed as arbitrary units, and as a positive control group, hydrogen peroxide (H2O2, 2 mM) was used. ROS measurement for the Huh7.5 cells was also carried out by the same procedure as described above.
As a control group, a human HCC cell line, and Huh7.5 and JFH-1 cell lines were treated with known representative antioxidants such as NAC (2 Mm), PDTC (100 μM), and vitamin E (10 μM) and then compared.
The inventors inhibited the interaction with HSP90 by two methods: a use of antibodies against […] and antibodies against HSP90 or a use of an inhibitor occupying a catalytic position (ATP-binding pocket in the N-terminal of HSP90).

NF-κB = NF-κB dual-luciferase assay in MT-4 cells; assay type: cell-based, human; settings: 24 hours
From the text: NF-κB triggers HIV transcription by interacting with an NF-κB-binding site in HIV-LTR, and increases the activation of TAT-mediated LTR […]. In addition, Tat can directly activate NF-κB. Recently, there have been studies showing that eHSP90 can regulate various intracellular signaling pathways, including the NF-κB pathway.

[1] = test system: HIV-1-infected MT-4 cells; assay: Cell protective effect from HIV-1-induced cell death in MT-4 cells; assay type: cell-based, human; settings: 5 days
Procedure: MT-4, 1G5 or ACH-2 cells were seeded in a 96-well microplate at a density of 1×10^4 cells/well, and incubated with increasing concentrations of PEP1 for 5 days. Cell viability was determined by colorimetry using a CellTiter96 Aqueous One Solution assay kit (Promega, Wis.) according to the manufacturer's instructions. To assess the cell protective effect of PEP1 from HIV-1-induced cell death, MT-4 cells (1×10^4) were infected with the HIV-1 virus (4×10^5 CCID50) for 5 days with or without PEP1, and subjected to a cell viability assay.
It has been known that apoptosis of HIV-infected cells occurs by an intracellular cell death mechanism.

HIV-1 [2] = settings: MT-4 cells
Procedure: The MT-4 cells (4×10^5 cells) were infected with HIV-1 (4×10^5 50% cell culture infective dose (CCID50)) for one hour. […] After two days of incubation, images of the MT-4 cells expressing eGFP were obtained using a fluorescence microscope before harvesting the cells. To remove cell debris, the collected supernatant was subjected to centrifugation at 13,000 rpm for 3 minutes, and to measure an extracellular viral amount, p24 ELISA or RNA extraction was performed for a reverse transcription-quantitative polymerase chain reaction (RT-qPCR). Meanwhile, the cell pellets were washed with D-PBS twice, and used for a cell viability assay. […] HIV-1 replication was analyzed by p24 ELISA, and eGFP was monitored using a fluorescent microscope.
To measure HIV-1 virus titers, HIV-1 p24 antigen capture ELISA (p24 ELISA, ABL) and RT-qPCT assay were performed according to the manufacturer's instructions. HIV-1 RNA genomes were purified from the cell culture supernatants and pellets using a QIAamp Ultrasens Virus kit (Qiagen, Hilden, Germany) according to the manufacturer's instructions. The HIV-1 RNA levels were quantified by RT-qPCR using a primer pair specific to gag of HIV-1. Glyceraldehyde phosphate dehydrogenase (GAPDH) was used as a reference gene for normalization. […]

HIV-1 [3] = settings: ACH-2 cells, RT-qPCR, stepwise increasing concentrations
Procedure: That is, ACH-2 cells, that is, cells latently-infected with HIV-1, were stimulated with PMA (50 nM) to induce reactivation of HIV-1 for 1 hour. […] A production level of viral particles in the supernatant was determined by p24 ELISA.
The levels of viral genomic RNA of the produced viral particles were determined by RT-qPCR.

[4] = test system: HIV-1 Tat transactivation; assay: HIV-LTR-luciferase assay in 1G5 cells transfected with Tat plasmids; assay type: cell-based; settings: four days
Procedure: An HIV-1 transactivation protein (Tat) is a regulatory protein dramatically enhancing HIV-1 transcription through the interaction with the tat-transcriptional active region (TAR). […] In the present invention, as a Jurkat-derived cell line, 1G5 containing a stably-inserted HIV-LTR-luciferase construct was used.
The 1G5 cells were transfected with Tat plasmids. […] Four days after the infection, the transactivation of HIV-LTR was analyzed through a luciferase assay.

HCV = assay: Quantitative PCR of HCV NS2 transcript in JFH-1 cells; assay type: cell-based, Hepatitis C virus (HCV2a JFH-1); settings: 48 hours, vs vehicle, PEP1 until 10 μM, NAC 20 mM, PDTC 100 μM, vitamin E 10 μM
Procedure: A cell line used in the example relating to the HCV antiviral effect of PEP1 according to an aspect of the present invention, such as, human hepatocellular carcinoma (Huh7.5) was purchased from the American Type Culture Collection (ATCC; Manassas, Va., USA), and a JFH-1 cell line was constructed using HCV2a JFH-1 clones provided from Dr. Wakita (Tokyo Metropolitan Institute for Neuroscience, Tokyo, Japan) in the Huh7.5 cell line. All of the cell lines were cultured in a Dulbecco's modified Eagle's medium (DMEM) containing 10% FBS and 1% antibiotics.
A HCV RNA level was detected though quantitative PCR using primers for a NS2 gene. To measure the level of HCV RNA in the supernatant of cell culture, RNA was extracted from 100 μl of the cell culture using a QIAamp Viral RNA Mini kit (Qiagen). The extracted RNA was used in cDNA synthesis using a transcript first strand cDNA synthesis supermix kit (Roche Applied Science). PCR was carried out using a 1×SYBR Green mix (Qiagen). For real-time PCR, an NS2 forward primer 5′-[…]-3′ (SEQ ID NO: 3) and a reverse primer 5′-[…]-3′ (SEQ ID NO: 4) were purchased from Bioneer Co. For quantitative PCR, a 7900HT Fast real-time PCR system (Applied Biosystems, Foster City, Calif., USA) was used.
According to the methods described in the experiments and the analysis methods, to investigate whether PEP1 inhibits the replication of one HCV RNA such as NS2, the transcript of NS2 was measured.

[5] = test system: HSP90 (extracellular HSP90, eHSP90); assay: Extracellular HSP90 detection by ELISA in JFH-1 culture supernatant; assay type: cell-based, human; settings: JFH-1 cells, PDTC 100 μM, 2 hours, vs control
Procedure: The Huh7.5 and JFH-1 cell lines were treated with an oxidant (H2O2, 2 mM) and an antioxidant, PDTC (100 μM), for two hours. HSP90 (extracellular HSP90, eHSP90) in the supernatant of a culture was detected by ELISA (R&D Systems, Minneapolis, Minn., USA) according to the manufacturer's instructions.

HIV-1 [6] = settings: characteristics of control anti-HIV drugs stated as well known; cited from earlier work
p38, JNK and ERK = assay: Immunoblotting of MAPK signaling factors in JFH-1 cells; assay type: cell-based, human; settings: 2 hours, vitamin E 10 μM
Procedure: Proteins were acquired from cells using a lysis solution (Cell Signaling Technology, Danvers, Mass., USA) containing a proteinase inhibitors cocktail (Roche, Basel, Switzerland) and a phosphatase inhibitor (Roche). To remove debris, which remained after cell lysis, the cells were centrifuged for 10 minutes at 4° C. 50 μg of the proteins were analyzed through 12% sodium dodecyl sulfate-polyacrylamide gel electrophoresis (SDS-PAGE), and then transferred to a polyvinylidene difluoride membrane (PVDF; Millipore, Bedford, Mass., USA). The transferred membrane was developed using an ImageQuant™ LAS 4000 mini biomolecular imager (GE Healthcare Bio-Sciences AB, Sweden), after antibodies against HSP90, p38, p-p38 (Thr180/Tyr182), JNK, p-JNK (Thr183/Tyr185), ERK, p-ERK (Thr202/Tyr204), and zinc-copper containing enzyme SOD (CuZn-SOD) and manganese-SOD (Mn-SOD) as superoxide dismutase oxidases (SODs), and GAPDH (all of them were purchased from Cell Signaling Technology and Santa Cruz Biotechnology) were attached to the membrane and then visualized by a SuperSignal West Pico chemiluminescence substrate (Pierce, Rockford, USA). β-actin was used for normalization using a Multi Gauge V 3.0 (Fuji Film, Japan), and quantitative analysis was carried out by densitometry. […]

C=CCNC1=C2C[C@@H](C)C[C@H](OC)[C@H](O)[C@@H](C)/C=C(\C)[C@H](OC(N)=O)[C@@H](OC)/C=C\C=C(/C)C(=O)NC(=CC1=O)C2=O [17AAG, 17-N-Allylamino-17-demethoxy geldanamycin]
Change in ROS caused by HSP inhibitor (JFH-1 cells; 17AAG 1 μM, KNK 10 μM): the ROS inhibitory effect was exhibited

Cc1cn([C@H]2C[C@H](N=[N+]=[N-])[C@@H](CO)O2)c(=O)[nH]c1=O [AZT, 3-azido-3-deoxythymidine]
NF-κB activity in HIV-1-infected MT-4 cells (NF-κB): medium level of inhibitory effect | Basal NF-κB activity (NF-κB; MT-4 cells): no significant effect | Cell protective effect [1]: considerable cell protective effects in a dose-dependent manner | Inhibition of eGFP expression after anti-HSP90 antibodies (HIV-1 [2]; fluorescence / immunoblotting): an effect of AZT was not obtained | Inhibition of HIV-1 production after anti-HSP90 neutralization antibodies (HIV-1 [2]; p24 ELISA): no influence | Viral genomic RNA of produced viral particles after PMA (HIV-1 [3]): did not change the PMA effect | HIV-LTR luciferase activity activated by ectopic expression of Tat [4]: did not inhibit

CC(=O)N[C@@H](CS)C(=O)O [NAC, N-acetylcysteine]
ROS production (JFH-1 cells): induced a decrease in ROS production | NS2 transcription (HCV RNA replication) (HCV): do not inhibit the NS2 transcription at all

S=C(S)N1CCCC1 [PDTC, pyrolidine dithiocarbamate]
ROS production (JFH-1 cells): induced a decrease in ROS production | ROS production in the presence of KNK and 17AAG (JFH-1 cells; PDTC): inhibits ROS production in the presence of both of KNK and 17AAG | ROS production with HSP70/HSP90 blocking antibodies (JFH-1 cells; PDTC): inhibits ROS production regardless of blocking of HSP70 and HSP90 | NS2 transcription (HCV RNA replication) (HCV): do not inhibit the NS2 transcription at all | eHSP90 level [5]: produced at a lower level than the control group

CC(C)c1nc(CN(C)C(=O)N[C@H](C(=O)N[C@@H](Cc2ccccc2)C[C@H](O)[C@H](Cc2ccccc2)NC(=O)OCc2cncs2)C(C)C)cs1 [Ritonavir]
Time of treatment at which the control drug inhibits HIV proliferation (HIV-1 [6]): up to 15 hours

vitamin E
ERK activity (p38, JNK and ERK): increased | ROS production (JFH-1 cells): induced a decrease in ROS production | NS2 transcription (HCV RNA replication) (HCV): do not inhibit the NS2 transcription at all

Source: patent publication US11015179B2, “Peptide having anti-viral effect and composition containing same” (priority 2015, dated 2021)
